{"source": "paper PMC5063996", "about": "“The Mechanism by Which Arabinoxylanases Can Recognize Highly Decorated Xylans” (The Journal of Biological Chemistry, 2016)", "target": "T1, CtGH5-CBM6 (CtGH5-CtCBM6, derivative of arabinoxylanase CtXyl5A) (Acetivibrio thermocellus, UniProt A3DHG6, E279S)", "T1 construct": "gene Cthe_2193; no signal peptide, CBM13, Fn3, CBM62 or dockerin; C-terminal His6; E. coli BL21(DE3)", "T1 sequence (A3DHG6 entry or part of it E279S)": "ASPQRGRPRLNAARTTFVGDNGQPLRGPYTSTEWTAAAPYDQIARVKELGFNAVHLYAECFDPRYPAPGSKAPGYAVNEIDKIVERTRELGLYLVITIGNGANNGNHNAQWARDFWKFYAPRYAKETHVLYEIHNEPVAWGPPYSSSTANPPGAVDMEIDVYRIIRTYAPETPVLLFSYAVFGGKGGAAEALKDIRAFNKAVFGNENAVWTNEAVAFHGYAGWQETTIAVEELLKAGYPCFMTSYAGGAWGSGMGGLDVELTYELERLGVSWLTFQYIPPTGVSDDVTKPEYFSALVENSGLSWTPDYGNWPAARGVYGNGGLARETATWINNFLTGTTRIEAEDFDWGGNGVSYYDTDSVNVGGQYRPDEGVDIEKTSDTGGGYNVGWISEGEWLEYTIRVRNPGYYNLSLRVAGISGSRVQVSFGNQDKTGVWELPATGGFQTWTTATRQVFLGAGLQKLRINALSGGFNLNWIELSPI", "assay": "X-ray crystal structure, co-crystal, […] Å", "format": "binding", "details": "nucleophile-inactive mutant; 10 mM WAX-derived oligosaccharide; subsites -1 to -4 and -2*; PDB code printed as 2LA2 (apparent misprint for 5LA2)"}
{"molecule": "OC[C@@H]1O[C@@H](O[C@H]2[C@H](O[C@@H]3OC[C@@H](O[C@@H]4OC[C@@H](O[C@@H]5OC[C@@H](O)[C@H](O)[C@H]5O)[C@H](O)[C@H]4O)[C@H](O)[C@H]3O)COC(O)[C@@H]2O)[C@H](O)[C@H]1O", "note": "(stereo partly drawn) [Xylp-β-1,4-Xylp-β-1,4-Xylp-[α-1,3-Araf]-β-1,4-Xylp]", "values": [{"measurement": "X-ray crystal structure, co-crystal, 1.65 Å", "result": "co-crystallizing the nucleophile inactive mutant CtGH5E279S-CtCBM6 with a WAX-derived oligosaccharide"}]}
